Laboratory results reported in ChEMBL document CHEMBL3992556, “5-Ethynylarylnaphthalimides as antitumor agents: Synthesis and biological evaluation” (Bioorg Med Chem, 2017).
Activity calls are given as the source filed them. The rule behind the calls is not given here.

Key:
[1] = test system: SK-BR-3; experiment: Antiproliferative activity against human SK-BR-3 cells after 48 hrs by MTT assay; format: functional, cell-based; conditions: SK-BR-3, 48 h
[2] = test system: HL-60; experiment: Antiproliferative activity against human HL60 cells after 48 hrs by MTT assay; format: functional, cell-based; conditions: HL-60, 48 h
[3] = test system: HEL; experiment: Antiproliferative activity against human HEL cells after 48 hrs by MTT assay; format: functional, cell-based
[4] = test system: Saccharomyces cerevisiae; experiment: Induction of DNA damage in Saccharomyces cerevisiae FM588 expressing rad52 gene assessed as growth inhibition at 5 to 100 uM after 24 hrs; format: functional
[5] = test system: Saccharomyces cerevisiae; experiment: Induction of DNA damage in Saccharomyces cerevisiae FM888 harboring rad52 deletion mutant assessed as growth inhibition at 5 to 100 uM after 24 hrs; format: functional
[6] = target: DNA topoisomerase 2-alpha (Homo sapiens) (UniProt P11388); experiment: Inhibition of human topoisomerase-2 alpha assessed as reduction in relaxation of supercoiled pRYG DNA at 100 uM after 30 min by agarose gel electrophoresis
Sequence of DNA topoisomerase 2-alpha (Homo sapiens) (P11388 whole entry): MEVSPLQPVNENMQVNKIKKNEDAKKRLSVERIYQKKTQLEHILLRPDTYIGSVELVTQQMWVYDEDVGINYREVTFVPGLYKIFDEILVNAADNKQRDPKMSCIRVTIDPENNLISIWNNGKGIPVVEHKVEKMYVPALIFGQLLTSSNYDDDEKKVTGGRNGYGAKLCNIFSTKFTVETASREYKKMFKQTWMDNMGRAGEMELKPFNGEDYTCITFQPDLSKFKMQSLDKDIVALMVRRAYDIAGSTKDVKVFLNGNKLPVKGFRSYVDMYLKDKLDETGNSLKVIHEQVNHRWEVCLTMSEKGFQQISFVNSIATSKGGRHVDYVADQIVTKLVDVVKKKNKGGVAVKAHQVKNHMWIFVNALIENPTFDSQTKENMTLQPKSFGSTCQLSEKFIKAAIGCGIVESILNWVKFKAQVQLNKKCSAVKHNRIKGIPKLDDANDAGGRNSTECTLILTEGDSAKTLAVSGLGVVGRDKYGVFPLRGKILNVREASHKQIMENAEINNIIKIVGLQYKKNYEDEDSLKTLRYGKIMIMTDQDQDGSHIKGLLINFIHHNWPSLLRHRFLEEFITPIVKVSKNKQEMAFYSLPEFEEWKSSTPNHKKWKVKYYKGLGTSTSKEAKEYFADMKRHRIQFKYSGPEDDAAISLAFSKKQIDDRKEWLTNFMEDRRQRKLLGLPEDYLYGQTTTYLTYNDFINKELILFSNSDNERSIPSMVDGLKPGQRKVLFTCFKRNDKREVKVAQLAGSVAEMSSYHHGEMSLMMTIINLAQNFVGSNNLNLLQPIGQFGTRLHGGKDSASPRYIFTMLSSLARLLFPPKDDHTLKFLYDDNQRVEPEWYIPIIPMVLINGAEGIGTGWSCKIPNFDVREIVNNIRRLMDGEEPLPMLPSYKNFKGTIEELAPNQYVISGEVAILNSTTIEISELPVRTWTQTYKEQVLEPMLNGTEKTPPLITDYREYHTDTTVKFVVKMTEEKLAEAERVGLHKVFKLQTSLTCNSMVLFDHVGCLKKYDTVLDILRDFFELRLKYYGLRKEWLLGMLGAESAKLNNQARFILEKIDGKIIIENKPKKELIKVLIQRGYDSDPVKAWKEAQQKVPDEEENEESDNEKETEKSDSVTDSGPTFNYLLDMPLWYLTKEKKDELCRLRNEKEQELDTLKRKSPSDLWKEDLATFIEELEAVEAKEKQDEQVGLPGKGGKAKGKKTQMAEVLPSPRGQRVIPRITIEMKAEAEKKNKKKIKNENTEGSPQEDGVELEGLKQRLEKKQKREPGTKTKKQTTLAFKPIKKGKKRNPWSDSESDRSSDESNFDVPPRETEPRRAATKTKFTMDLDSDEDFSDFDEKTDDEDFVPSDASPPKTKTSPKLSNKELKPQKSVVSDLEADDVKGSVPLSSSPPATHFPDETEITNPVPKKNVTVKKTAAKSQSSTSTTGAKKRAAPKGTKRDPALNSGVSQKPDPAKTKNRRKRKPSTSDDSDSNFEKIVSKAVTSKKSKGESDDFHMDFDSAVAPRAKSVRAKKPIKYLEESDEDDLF

[7] = target: DNA topoisomerase 2-alpha (Homo sapiens) (UniProt P11388); experiment: Poison activity at human topoisomerase-2 alpha assessed as increase in supercoiled pRYG DNA cleavage at 100 uM after 10 min

| IC50 [1] [µM] | IC50 [2] [µM] | Topoisomerase 2-alpha inhibition (active/not active) [6] | SMILES | IC50 [3] [µM] | Activity [4] | Activity [5] | Activity [7] |
| --- | --- | --- | --- | --- | --- | --- | --- |
| 2.1 | 5.7 |  | CN(C)CCN1C(=O)c2cccc3cc(C#Cc4ccc(O)cc4)cc(c23)C1=O | 13.1 | inactive | inactive |  |
| 4.6 | 4.6 | Active | CN(C)CCN1C(=O)c2cccc3cc(C#Cc4ccccc4)cc(c23)C1=O | 1.4 | Active | Active |  |
| 9.6 | 3.5 | Active | CN(C)CCN1C(=O)c2cccc3cc(C#Cc4ccoc4)cc(c23)C1=O | 5.6 | Active | Active |  |
| > 10 | 5.4 | Active | CN(C)CCN1C(=O)c2cccc3cc(C#Cc4ccsc4)cc(c23)C1=O | 5 | Active | Active | Active |
| 2.1 | 1.1 |  | COc1ccc(C#Cc2cc3c4c(cccc4c2)C(=O)N(CCN(C)C)C3=O)cc1 | 2 | Active | Active |  |
|  |  |  | COc1cc([C@@H]2c3cc4c(cc3[C@@H](O[C@@H]3O[C@@H]5CO[C@@H](C)O[C@H]5[C@H](O)[C@H]3O)[C@H]3COC(=O)[C@H]23)OCO4)cc(OC)c1O |  |  |  | Active |
| > 30 | 10.2 |  | CN(C)CCN1C(=O)c2cccc3cc(C#Cc4cccc(O)c4)cc(c23)C1=O | 1.2 | Active | Active |  |
| > 10 | 10 |  | C#Cc1cc2c3c(cccc3c1)C(=O)N(CCN(C)C)C2=O | 8.1 | Active | Active |  |
| 0.1 | 2.3 | inactive | CN(C)CCN1C(=O)c2cccc3cc(C#Cc4cccc(C(F)(F)F)c4)cc(c23)C1=O | 2.2 | Active | Active |  |
| > 10 | 13.6 |  | CN(C)CCN1C(=O)c2cccc3cc(C#Cc4cccc([N+](=O)[O-])c4)cc(c23)C1=O | 21.7 | Active | Active |  |
| 2 | 1 |  | COc1cccc(C#Cc2cc3c4c(cccc4c2)C(=O)N(CCN(C)C)C3=O)c1 | 1 | Active | Active |  |

| SMILES | IC50 [1] [µM] | IC50 [2] [µM] | Topoisomerase 2-alpha inhibition (active/not active) [6] | IC50 [3] [µM] | Activity [4] | Activity [5] | Activity [7] |
| --- | --- | --- | --- | --- | --- | --- | --- |
| CN(C)CCN1C(=O)c2cccc3cc(N)cc(c23)C1=O [AMONAFIDE] |  | 3.4 |  | 4 |  |  |  |
